Reference: BindingDB's records for doi:10.1021/jm101144f (Dana-Farber Cancer Institute, 2010)

Assay: Inhibition of PI3Kalpha in human PC3 cells expressing Akt1 S473D mutant assessed as phosphorylation of Akt Thr308 by immunoblotting

IC50: > 300 nM
SMILES: COCCC(=O)N1CCN(c2ccc(Nc3ccnc4ccc(-c5cnc6ccccc6c5)cc34)cc2C(F)(F)F)CC1 [1-(4-(4-([3,6'-biquinolin]-4'-ylamino)-2-(trifluoromethyl)phenyl)piperazin-1-yl)-3-methoxypropan-1-one]
